Source: ChEMBL document CHEMBL1201862, “PubChem BioAssay data set” (2004)
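Step 1: Grow cells in 96-well plates. Step 2: Expose to compound for 48 hours at 5 concentrations. Step 3: Interpolate endpoints linearly; if unreached, use highest concentration. At the GI50, growth is halved.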 Active and inactive are the calls of the source. No stated cut-off is given here; in the data, active = GI50 up to about 1.1 µM and inactive = higher.

What was measured:
Test in all cases: NCI tumour cell line growth inhibition, 48 h
[1] = test system: NCI-H226
[2] = test system: SK-MEL-2
[3] = test system: KM-20L2
[4] = test system: SW-620
[5] = test system: A549
[6] = test system: XF498
[7] = test system: DMS-114
[8] = test system: OVCAR-3
[9] = test system: M19-MEL
[10] = test system: SNB-78
[11] = test system: DMS-273
[12] = test system: SF-268
[13] = test system: LOX IMVI
[14] = test system: ACHN
[15] = test system: DLD-1
[16] = test system: HCT-15
[17] = test system: SK-OV-3
[18] = test system: RXF 393

SMILES | GI50 [1] | GI50 [2] | GI50 [3] | GI50 [4] | GI50 [5] | GI50 [6] | GI50 [7] | GI50 [8] | GI50 [9] | GI50 [10] | GI50 [11] | GI50 [12] | GI50 [13] | GI50 [14] | GI50 [15] | GI50 [16] [µM] | GI50 [17] | GI50 [18]
[N-]=[N+]=N[C@H]1C[C@@H](CO)O[C@H]1n1cnc2c(N)ncnc21 | > 100 µM (inactive) | > 100 µM (inactive) | > 100 µM (inactive) | > 100 µM (inactive) | > 100 µM (inactive) | 31.2 µM (inactive) | > 100 µM (inactive) | > 100 µM (inactive) | > 100 µM (inactive) | > 100 µM (inactive) | > 100 µM (inactive) | > 100 µM (inactive) | > 100 µM (inactive) | > 100 µM (inactive) | > 100 µM (inactive) | – | – | –
Cc1cc(Cl)ccc1NC(=O)CCCC(=O)C1CCCC1=O (stereo not given) | > 100 µM (inactive) | > 100 µM (inactive) | > 100 µM (inactive) | > 100 µM (inactive) | > 100 µM (inactive) | > 100 µM (inactive) | > 100 µM (inactive) | > 100 µM (inactive) | > 100 µM (inactive) | > 100 µM (inactive) | > 100 µM (inactive) | > 100 µM (inactive) | > 100 µM (inactive) | > 100 µM (inactive) | > 100 µM (inactive) | > 100 | > 100 µM (inactive) | –
Cc1cc2c(C)nn(Cc3ccccc3)c2c(C(N)=O)c1C | – | > 100 µM (inactive) | > 100 µM (inactive) | > 100 µM (inactive) | > 100 µM (inactive) | > 100 µM (inactive) | > 100 µM (inactive) | > 100 µM (inactive) | > 100 µM (inactive) | > 100 µM (inactive) | > 100 µM (inactive) | > 100 µM (inactive) | > 100 µM (inactive) | > 100 µM (inactive) | > 100 µM (inactive) | > 100 | > 100 µM (inactive) | –
CC(C)(c1ccccc1)c1ccc(Oc2ccc(C#N)c(C#N)c2)cc1 | > 10 µM (inactive) | > 10 µM (inactive) | > 10 µM (inactive) | > 100 µM (inactive) | 27 µM (inactive) | > 10 µM (inactive) | 4.98 µM (inactive) | > 10 µM (inactive) | 79.1 µM (inactive) | > 10 µM (inactive) | – | 43.5 µM (inactive) | > 10 µM (inactive) | 33.8 µM (inactive) | > 10 µM (inactive) | > 10 | > 10 µM (inactive) | 92.9 µM (inactive)
CC12Oc3ccc4ccccc4c3C1c1c(ccc3ccccc13)O2 (stereo not given) | > 100 µM (inactive) | > 100 µM (inactive) | > 100 µM (inactive) | > 100 µM (inactive) | > 100 µM (inactive) | > 100 µM (inactive) | > 100 µM (inactive) | > 100 µM (inactive) | > 100 µM (inactive) | > 100 µM (inactive) | > 100 µM (inactive) | > 100 µM (inactive) | > 100 µM (inactive) | > 100 µM (inactive) | > 100 µM (inactive) | – | > 100 µM (inactive) | > 100 µM (inactive)
O=S(=O)(c1ccccc1)C1(C2(S(=O)(=O)c3ccccc3)CCN=N2)CCN=N1 (stereo not given) | > 100 µM (inactive) | > 100 µM (inactive) | – | > 100 µM (inactive) | > 100 µM (inactive) | > 100 µM (inactive) | > 100 µM (inactive) | > 100 µM (inactive) | > 100 µM (inactive) | – | > 100 µM (inactive) | > 100 µM (inactive) | > 100 µM (inactive) | > 100 µM (inactive) | > 100 µM (inactive) | > 100 | > 100 µM (inactive) | > 100 µM (inactive)
CC(C)(C)c1cc(C(OCCl)(C(F)(F)F)C(F)(F)F)c2c(c1)C(C(F)(F)F)(C(F)(F)F)OC21c2ccccc2C(=O)c2ccccc21 | > 100 µM (inactive) | > 100 µM (inactive) | > 100 µM (inactive) | > 100 µM (inactive) | > 100 µM (inactive) | 34 µM (inactive) | > 100 µM (inactive) | > 100 µM (inactive) | > 100 µM (inactive) | > 100 µM (inactive) | > 100 µM (inactive) | – | – | > 100 µM (inactive) | > 100 µM (inactive) | > 100 | – | > 100 µM (inactive)
COc1cc2c(cc1OC)NC(=O)NC(Cc1ccc3c(c1)OCO3)CC2 (stereo not given) | – | > 100 µM (inactive) | > 100 µM (inactive) | > 100 µM (inactive) | > 100 µM (inactive) | > 100 µM (inactive) | > 100 µM (inactive) | > 100 µM (inactive) | > 100 µM (inactive) | > 100 µM (inactive) | > 100 µM (inactive) | > 100 µM (inactive) | > 100 µM (inactive) | > 100 µM (inactive) | > 100 µM (inactive) | > 100 | > 100 µM (inactive) | > 100 µM (inactive)
